Assay results as given in patent US12246079B2, “Bisacurone composition and method of skin whitening” (Vidya Herbs, Inc., priority 2019, dated 2025).

System: B16F10 murine melanoma cells
Assay: Melanin content in α-MSH-stimulated B16F10 cells
Format: cell-based
Conditions: 400 μg, vs α-MSH alone treated B16F10 cells
Protocol: B16F10 cells (obtained from National Centre for Cell Sciences (NCCS), Pune, India) were cultured in Dulbecco's Modified Eagle's Medium (DMEM; Sigma Aldrich Co, St Louis, USA) with 10% fetal bovine serum (FBS) and penicillin/streptomycin (100 IU.50 Pg ml-1) in a humidified atmosphere of 5% CO2 at 37° C. The cells were cultured in 6-well plates for melanin quantification and enzyme activity assays.
Determination of melanin content of cells was done using a modification of the method of Bilodeau et al (Bilodeau et al 2001). In the present study, the amount of melanin was used as an index of melanogenesis. B16 F10 cells (5×10^4) were transferred to 24-well dishes and incubated in the presence or absence of 100 nM α-MSH. Cells were then incubated for 24 h with different concentration of the composition. After washing twice with PBS, samples were dissolved in 100 μl of 1N NaOH. The samples were then incubated at 60° C. for 1 h and mixed to solubilize the melanin. Absorbance at 405 nm was compared with a standard curve of synthetic melanin.
In order to assess the anti-melanogenesis activity of the composition, the melanin content was measured in both α-MSH-untreated and α-MSH-treated B16F10 cells. The cells were treated with/without α-MSH, followed by treatment with the composition at doses of 100, 200 and 400 μg/Ml (FIG. 4A).

OC[C@H]1O[C@@H](Oc2ccc(O)cc2)[C@H](O)[C@@H](O)[C@@H]1O [arbutin]
decrease of melanin content: 35.96%
